Source: US3957811A, “Process for 3-(1-[arylmethyl]tetrazol-5-yl)penams” (Pfizer Inc., priority 1974, dated 1976)
≈ marks a conversion by molar mass, not a printed value. Where two headings read alike, the source gives them in different places.

Tested on: Streptococcus pyogenes
Experiment: In vitro MIC, conventional two-fold serial dilution technique in Brain-Heart Infusion broth, vs. Strep. pyogenes
Format: cell-based
Settings: read-out: MIC vs. Strep. pyogenes
Experimental: The antibacterial penam compounds, prepared from the products of the instant process invention, show activity against a wide variety of gram-positive and gram-negative bacteria. […] The broth is inoculated with the bacterial culture, and with the test antibiotic, and then it is incubated overnight. On the next day, the test is read visually. The minimum inhibitory concentration (MIC) is the lowest concentration of antibiotic which prevents turbidity, i.e., which prevents growth of the microorganism. In vitro activities of several of the penam compounds of the invention are presented later in this specification.
In vitro antibacterial activities for a number of compounds prepared by the procedure of Example 8 are presented below.
In Table II, the minimum inhibitory concentrations (MIC's) of compounds wherein R is hydrogen, against a strain of Streptococcus pyogenes are reported.

[1] = compounds wherein R is hydrogen, a strain of Streptococcus pyogenes, Brain-Heart Infusion broth, overnight

| MIC [1] [µg/mL] | SMILES | MIC (Streptococcus pyogenes) [µg/mL] |
| --- | --- | --- |
| < 0.1 | CC1(C)S[C@@H]2[C@H](NC(=O)C(N=[N+]=[N-])c3ccccc3)C(=O)N2[C@H]1c1nnn[nH]1 (stereo partly shown) [2-azido-2-phenylacetyl] |  |
| < 0.1 | CC1(C)S[C@@H]2[C@H](NC(=O)[C@H](N)c3cccc(O)c3)C(=O)N2[C@H]1c1nnn[nH]1 [D-2-amino-2-(m-hydroxyphenyl)acetyl] |  |
| < 0.1 | CC1(C)S[C@@H]2[C@H](NC(=O)OCc3ccccc3)C(=O)N2[C@H]1c1nnn[nH]1 [benzyloxycarbonyl] |  |
| < 0.1 | CC1(C)S[C@@H]2[C@H](NC(=O)[C@@H](N)c3ccc(O)cc3)C(=O)N2[C@H]1c1nnn[nH]1 [L-2-amino-2-(p-hydroxyphenyl)acetyl] |  |
| < 0.1 | CC1(C)S[C@@H]2[C@H](NC(=O)[C@H](N)c3ccccc3)C(=O)N2[C@H]1c1nnn[nH]1 [D-2-amino-2-phenylacetyl] |  |
| < 0.1 | CC1(C)S[C@@H]2[C@H](NC(=O)Cc3ccccc3)C(=O)N2[C@H]1c1nnn[nH]1 [2-phenylacetyl, 6-(2-Phenylacetamido)-2,2-dimethyl-3-(5-tetrazolyl)penam] |  |
| < 0.1 | CCOC(=O)N[C@@H]1C(=O)N2[C@@H]1SC(C)(C)[C@@H]2c1nnn[nH]1 [ethoxycarbonyl] |  |
| 0.39 (≈ 1.01 µM) | CC1(C)S[C@@H]2[C@H](NC(=O)[C@H](N)Cc3ccccc3)C(=O)N2[C@H]1c1nnn[nH]1 [D-2-amino-3-phenylpropionyl] |  |
| < 0.1 | CC1(C)S[C@@H]2[C@H](NC(=O)COc3ccccc3)C(=O)N2[C@H]1c1nnn[nH]1 [2-phenoxyacetyl] |  |
| < 0.1 | CC1(C)S[C@@H]2[C@H](NC(=O)[C@H](N)c3cccc(F)c3)C(=O)N2[C@H]1c1nnn[nH]1 [D-2-amino-2-(m-fluorophenyl)acetyl] |  |

Continued, molecule first:

| SMILES | MIC [1] [µg/mL] | MIC (Streptococcus pyogenes) [µg/mL] |
| --- | --- | --- |
| CC1(C)S[C@@H]2[C@H](NC(=O)C=CC(N)=O)C(=O)N2[C@H]1c1nnn[nH]1 [3-(carbamoyl)acryloyl] | < 0.1 |  |
| CC1(C)S[C@@H]2[C@H](NC(=O)CSc3ccncc3)C(=O)N2[C@H]1c1nnn[nH]1 [2-(4-pyridylthio)acetyl] |  | < 0.1 |
| CC1(C)S[C@@H]2[C@H](NC(=O)Oc3ccccc3)C(=O)N2[C@H]1c1nnn[nH]1 [phenoxycarbonyl] |  | < 0.1 |
| CC1(C)S[C@@H]2[C@H](NC(=O)C(N)c3ccc(O)c(O)c3)C(=O)N2[C@H]1c1nnn[nH]1 (mixture of isomers) [DL-2-amino-2-(3,4-dihydroxyphenyl)acetyl] | < 0.1 |  |
| CC1(C)S[C@@H]2[C@H](NC(=O)CBr)C(=O)N2[C@H]1c1nnn[nH]1 [2-bromoacetyl] | < 0.1 |  |
| CC1(C)S[C@@H]2[C@H](N)C(=O)N2[C@H]1c1nnn[nH]1 [hydrogen, 6-Amino-2,2-dimethyl-3-(5-tetrazolyl)penam] | < 0.1 |  |
| CC1(C)S[C@@H]2[C@H](NC(=O)CC#N)C(=O)N2[C@H]1c1nnn[nH]1 [2-cyanoacetyl] | 0.1 (≈ 0.325 µM) |  |
| CC1(C)S[C@@H]2[C@H](NC(=O)C3(N)CCCCC3)C(=O)N2[C@H]1c1nnn[nH]1 [1-aminocyclohexylcarbonyl] | 25 (≈ 68.4 µM) |  |
| CC1(C)S[C@@H]2[C@H](NC(=O)C(N)c3ccc(Cl)cc3)C(=O)N2[C@H]1c1nnn[nH]1 (mixture of isomers) [DL-2-amino-2-(p-chlorophenyl)acetyl] | < 0.1 |  |
| CC1(C)S[C@@H]2[C@H](NC(=O)C(N)c3cc(O)ccc3Br)C(=O)N2[C@H]1c1nnn[nH]1 (mixture of isomers) |  | < 0.1 |
| COc1cccc(OC)c1C(=O)N[C@@H]1C(=O)N2[C@@H]1SC(C)(C)[C@@H]2c1nnn[nH]1 [2,6-dimethoxybenzoyl] | < 0.2 |  |
| CC(=O)N[C@@H]1C(=O)N2[C@@H]1SC(C)(C)[C@@H]2c1nnn[nH]1 [acetyl] | < 0.1 |  |
| CC(C)[C@@H](N)C(=O)N[C@@H]1C(=O)N2[C@@H]1SC(C)(C)[C@@H]2c1nnn[nH]1 [D-2-amino-3-methylbutyryl] | 0.2 (≈ 0.589 µM) |  |
| CC1(C)S[C@@H]2[C@H](NC(=O)[C@H](N)c3ccc(O)c(Cl)c3)C(=O)N2[C@H]1c1nnn[nH]1 | 0.1 (≈ 0.236 µM) |  |
| CCN=C(NCC)SCC(=O)N[C@@H]1C(=O)N2[C@@H]1SC(C)(C)[C@@H]2c1nnn[nH]1 [2-(N,N'-diethylamidinothio)acetyl] | < 0.1 |  |
| CC1(C)S[C@@H]2[C@H](NC(=O)[C@H](N)c3ccc(O)cc3)C(=O)N2[C@H]1c1nnn[nH]1 [D-2-amino-2-(p-hydroxyphenyl)acetyl, 6-(D-2-amino-2-[p-hydroxyphenyl]acetamido)-2,2-dimethyl-3-(5-tetrazolyl)penam] |  | < 0.1 |
| CC1(C)S[C@@H]2[C@H](NC(=O)[C@H](N)c3cccs3)C(=O)N2[C@H]1c1nnn[nH]1 [D-2-amino-2-(2-thienyl)acetyl] | 0.1 (≈ 0.264 µM) |  |
| CC1(C)S[C@@H]2[C@H](NC(=O)Cn3cnnn3)C(=O)N2[C@H]1c1nnn[nH]1 [2-(1-tetrazolyl)acetyl] | < 0.39 |  |
